Values quoted from earlier work, collected in PMC6916687 (Drug Design, Development and Therapy, 2019).

What was measured:
MDA-MB-231 cells = conditions: read-out: IC50 for MDA-MB-231 cells
QGY-7703 cells = conditions: read-out: IC50 for QGY-7703 cells

**Q.** With `Cc1ccc2c(=O)c3cccc(CC(=O)O)c3oc2c1C` [DMXAA, 5,6-dimethylxanthone-4-acetic acid] as the compound, how does the IC50 (MDA-MB-231 cells) read?
**A.** Its IC50 is 48.4 µM.

**Q.** With `O=c1c2ccccc2oc2cc(-c3ccccc3)ccc12` [3-phenylxanthone] as the compound, how does the IC50 (QGY-7703 cells) read?
**A.** Its IC50 is 6.27 µM.
